# Laboratory results published in US20240392231A1, “BACTERIOLYSIS METHOD AND BACTERIA DETECTION METHOD” (ASAHI KASEI KABUSHIKI KAISHA, priority 2021, published 2024).
# Tests used:
# [1] = system: Staphylococcus aureus (SA); experiment: Bacteriolysis and immunochromatographic detection, test line intensity by image processing; type: cell-based
# Experimental: (§1) Escherichia coli (EC) was selected as the Gram-negative bacteria and Staphylococcus aureus (SA) as the Gram-positive bacteria, and each was dissolved in saline to prepare a solution with a concentration of 1e5 cfu/ml. Normal saline was also used as the bacteria-free solution.
# (§2) 0.1M Tris-HCl (pH 7.4) buffer was mixed with 2.0 μg/ml of lysostaphin enzyme (the final concentration after mixing with the bacterial solution for evaluation (sample) was 1.0 μg/ml) and 0.2 mass % Tween20 for immunochromatographic development and used as a mother solution to prepare various reaction solutions with DDAO concentrations of from 0 to 0.5 mass % (the final concentrations after mixing with the bacterial solution for evaluation (sample) were 0 to 0.25 mass %) or benzalkonium chloride concentrations of 0 to 0.5 mass % (the final concentrations after mixing with the bacterial solution for evaluation (sample) were 0 to 0.25 mass %).
# (§3) Bacterial lysis and detection performance by antigen-antibody reaction were evaluated by inserting the immunochromatographic test strip prepared in Example 1 into a 1:1 mixture of the bacterial solution for evaluation and the various reaction solutions described above. The evaluation was made by photographing the test line area with a camera and quantifying the degree of redness of the test line area due to gold colloids via image processing (from the RGB values, the G value was used as indicating the red absorption. This is indicated as “test line intensity” in the graphs below). A higher test line intensity indicates a higher degree of redness, and a test line intensity of 10 or higher is considered visually positive.
# To see the effect of lysostaphin, Staphylococcus aureus (SA) was dissolved in saline to prepare a solution with a concentration of 1e6 cfu/ml. Normal saline was also used as the bacteria-free solution.
# 0.1M Tris-HCl (pH 7.4) buffer was mixed with DDAO at a concentration 0.15 mass % (the final concentration after mixing with the bacterial solution for evaluation (sample) was 0.075 mass %) or benzalkonium chloride at a concentration of 0.05 mass % (the final concentration after mixing with the bacterial solution for evaluation (sample) was 0.025 mass %) as well as 0.2 mass % of Tween20 for immunochromatographic development and used as a mother solution to prepare various reaction solutions with lysostaphin enzyme concentrations of 0 to 50 μg/ml (the final concentration after mixing with the bacterial solution for evaluation (sample) were 0 to 25 μg/ml).
# Bacterial lysis and detection performance by antigen-antibody reaction (test line intensity) were evaluated by inserting the immunochromatographic test strip prepared in Example 1 into a 1:1 mixture of the bacterial solution for evaluation and the various reaction solutions described above.
# [2] = system: Escherichia coli (EC); experiment: as above; type: cell-based
# Experimental: as §1, §2, §3
compound,measurement,setting,value
"lysostaphin: bacteriolysis enzyme, protein hydrolysis enzyme",test line intensity SA,"[1]; lysostaphin final concentration exceeding 0.01 μg/ml, DDAO 0.075 mass %, 1e6 cfu/ml, FIG. 4",high test line intensity
same,test line intensity SA,"[1]; lysostaphin final concentration exceeding 0.01 μg/ml, benzalkonium chloride 0.025 mass %, 1e6 cfu/ml, FIG. 5",high test line intensity
"CCCCCCCCCCCC[N+](C)(C)[O-] [DDAO, N,N-dimethyldodecylamine N-oxide]",test line intensity EC,"[2]; higher final concentrations of DDAO vs absence of DDAO, lysostaphin 1.0 μg/ml, 1e5 cfu/ml, FIG. 2",higher test line intensities
same,test line intensity SA,"[1]; final DDAO 0 to 0.05 mass %, lysostaphin 1.0 μg/ml, 1e5 cfu/ml, FIG. 2",increased
same,test line intensity SA,"[1]; final DDAO above 0.1 mass %, lysostaphin 1.0 μg/ml, 1e5 cfu/ml, FIG. 2",decreased
same,test line intensity SA,"[1]; final DDAO between 0.05 and 0.1 mass %, lysostaphin 1.0 μg/ml, 1e5 cfu/ml, FIG. 2",remained almost constant
benzalkonium chloride,test line intensity EC,"[2]; final benzalkonium chloride exceeding 0.075 mass %, FIG. 3",decrease in test line intensity
same,bacteriolysis efficiency and test line intensity EC,"[2]; final benzalkonium chloride up to 0.075 mass % vs none, lysostaphin 1.0 μg/ml, 1e5 cfu/ml, FIG. 3",higher bacteriolysis efficiency and test line intensity
same,test line intensity SA,"[1]; final benzalkonium chloride 0 to 0.065 mass %, lysostaphin 1.0 μg/ml, 1e5 cfu/ml, FIG. 3",increased
same,test line intensity SA,"[1]; final benzalkonium chloride exceeding 0.07 mass %, FIG. 3",decreased
